Measurements from patent US20180235860A1, “USE OF DIETHANOLAMMONIUM DERIVATIVES AS SKIN MOISTURIZER” (L'OREAL, priority 2015, published 2018).

System: isolated stratum corneum (SC)
Assay: Moisturizing potential on isolated stratum corneum by measurement with a Corneometer (dielectric capacitance)
Conditions: for Mean DHCMi corr. active agent: vehicle-corrected; for Dielectric capacitance of the stratum corneum / moisturizing effect in comparison with glycerol at the same concentration: 5% by weight, result in words
Protocol: B): Evaluation of the Moisturizing Potential on Isolated Stratum Corneum by Measurement with a Corneometer
A test was performed to evaluate the moisturizing potential of the compounds of the invention formulated in an aqueous solution to an amount of 5% by weight relative to the total weight of the composition.
The technique makes it possible to measure the dielectric capacitance of stratum corneum (SC), which depends on the mean dielectric permittivity value of the tissue. The dielectric permittivity varies greatly with the amount of water contained in the SC.
The SC samples are conditioned at 75% relative humidity and at 25° C. before/during the measurements and the treatment. The capacitance measurement is performed using a Corneometer™ (Courage & Khazaka, Germany).
The test compound, compound 2 according to the invention or a moisturizing active agent such as glycerol, is dissolved in a water/n-propanol mixture (80/20) and the solution is deposited onto the SC at a rate of 10 μl/cm^2 followed by air-drying for a total duration of 1 hour 30 minutes.
Measurement is taken at T0, before the treatment, and a measurement Ttreat is taken after total drying of the treatment.
Each treatment is systematically compared with its control (vehicle) and with its T0.
Using at least two different batches of SC, four to five SC samples are measured per treatment.
The variation in the corneometer signal (HCM) after treatment is calculated first for each SC sample: DHCMi=HCMi(Ttreat)−HCMi(T0). The mean of the DHCMi(vehicle) variations is then calculated for the control samples (treated with the vehicle); this mean value is subtracted from all the DHCMi(active agent) variations to correct the systematic bias.
The following is measured for each sample i: • For the vehicle (control): DHCMi(veh)=HCMiveh(Ttreat)−HCMiveh(T0) • For the active agent: DHCMiactive agent=HCMiactive agent(Ttreat)−HCMiactive agent(T0)
To correct the systematic bias associated with the vehicle, the corrected value DHCMicorr. active agent is considered for the active agent according to: DHCMicorr. active agent−DHCMiactive agent−M
in which M corresponds to the mean of the DHCMi(veh) variations observed on the n control samples:
The mean DHCMi corr. active agent values, and also the associated standard deviations that were obtained, are reported in the table below for compound 2 tested at 5%, in comparison with glycerol at 5%: […]

[1] = 5% by weight in water/n-propanol mixture, table for compounds 13 and 14 vs glycerol
[2] = 5% by weight in water/n-propanol mixture (80/20), 10 μl/cm2 on SC, 75% RH, 25° C., table for compound 2 vs glycerol

CC(O)C(=O)[O-].C[N+](C)(CCO)CCO [Compound 13]
Mean DHCMi corr. active agent [1]: 14 | Dielectric capacitance of the stratum corneum / moisturizing effect in comparison with glycerol at the same concentration: better

OCC(O)CO [Glycerol, glycerol, reference compound]
Mean DHCMi corr. active agent [2]: 13.8 | Mean DHCMi corr. active agent [1]: 11

C[N+](C)(CCO)CCO.[Cl-] [Compound 2]
Mean DHCMi corr. active agent [2]: 25.9 | Dielectric capacitance of the stratum corneum / moisturizing effect in comparison with glycerol at the same concentration: much better
